According to patent publication US11505548B2, “Heterocyclic compounds and their use for treatment of helminthic infections and diseases” (Celgene Corporation, priority 2019, dated 2022):
pIC50: −log10 of the molar value. Read-outs that look alike come from different tables or passages of the source.

System: Onchocerca gutturosa Adult Male Worms
Assay: Onchocerciasis in vitro screening model, worm motility score
Format: cell-based
Details: read-out: O. gutturosa activity level (IC50 or MED)
[1] = Onchocerca gutturosa, Table 1 O. gutturosa, levels A/B/C, motility or MTT readout not specified
[2] = in vitro, Onchocerca gutturosa adult male worms, class A/B/C

| SMILES | pIC50 [1] | pIC50 [2] |
| --- | --- | --- |
| Cc1cccnc1Nc1nc(-c2ccc(OC(C)C)cn2)n[nH]1 [Compound 69, N-(3-(5-isopropoxy-pyridin-2-yl)-1H-1,2,4-triazol-5-yl)-3-methylpyridin-2-amine] | 6.30 to 6.70 |  |
| CC(C)c1cnc(Nc2nc(-c3cc(OC4CC4)ccn3)ns2)cc1C(F)(F)F [Compound 96, 3-(4-cycloprop-oxypyridin-2-yl)-N-(5-isopropyl-4-(trifluoromethyl)pyridin-2-yl)-1,2,4-thiadiazol-5-amine] | > 6.70 |  |
| CN1CCC(Oc2ccc(-c3nsc(Nc4cc(C(F)(F)F)ccn4)n3)nc2)CC1 [Compound 34, 3-(5-(1-methyl-piperidin-4-yloxy)pyridin-2-yl)-N-(4-(trifluoro-methyl)pyridin-2-yl)-1,2,4-thiadiazol-5-amine] | 5.30 to 6.30 |  |
| CC(=O)N(C)c1cccnc1Nc1nc(-c2cc3c(cn2)OC(C)(C)C3)ns1 [Compound 271, N-(2-(3-(2,2-dimethyl-2,3-dihydrofuro [2,3-c]pyridin-5-yl)-1,2,4-thiadiazol-5-ylamino)pyridin-3-yl)-N-methylacetamide] |  | 5.30 to 6.30 |
| CC(C)Oc1ccc(-c2nsc(Nc3ncccc3N(C)C(=O)C3CCC3)n2)nc1 [Compound 171, N-(2-(3-(5-isopropoxy-pyridin-2-yl)-1,2,4-thiadiazol-5-ylamino)pyridin-3-yl)-N-methylcyclo-butane-carboxamide] | > 6.70 |  |
| CC(C)Oc1ccc(-c2nsc(Nc3ncccc3C(C)C)n2)nc1 [Compound 115, 3-(5-isopropoxy-pyridin-2-yl)-N-(3-isopropyl-pyridin-2-yl)-1,2,4-thiadiazol-5-amine] | > 6.70 |  |
| Cc1cccnc1-c1noc(Nc2ccc(N3CCCC3)cn2)n1 [Compound 42, 3-(3-methyl-pyridin-2-yl)-N-(5-(pyrrolidin-1-yl)pyridin-2-yl)-1,2,4-oxadiazol-5-amine] | > 6.70 |  |
| CC(=O)N(C)c1cccnc1Nc1nc(-c2ccc(OC3CCN(C(C)C)CC3(F)F)cn2)ns1 (stereo not shown) [Compound 203, N-(2-(3-(5-(3,3-difluoro-1-isopropyl-piperidin-4-yloxy)pyridin-2-yl)-1,2,4-thiadiazol-5-ylamino)pyridin-3-yl)-N-methylacetamide] |  | 5.30 to 6.30 |
| Cc1cnc(Nc2nc(-c3cc(C(=O)N(C)C)c(OC(C)C)cn3)ns2)c(C(F)(F)F)c1 [Compound 254, 5-isopropoxy-N,N-dimethyl-2-(5-(5-methyl-3-(trifluoromethyl)pyridin-2-ylamino)-1,2,4-thiadiazol-3-yl)isonico-tinamide] |  | 5.30 to 6.30 |
| c1ccc(-c2nsc(Nc3ccc(OC4CCNCC4)cn3)n2)nc1 [Cmpd 10, N-(5-(piperidin-4-yloxy)pyridin-2-yl)-3-(pyridin-2-yl)-1,2,4-thiadiazol-5-amine] | 5.30 to 6.30 |  |
| Cc1cccnc1Nc1nc(-c2ccc(OC3CCN(C)CC3)cn2)ns1 [Compound 18, 3-(5-(1-methyl-piperidin-4-yloxy)pyridin-2-yl)-N-(3-methylpyridin-2-yl)-1,2,4-thiadiazol-5-amine] | 6.30 to 6.70 |  |
| Cc1cccnc1Nc1nc(-c2ncc(OC3CC3)cc2C(F)(F)F)ns1 [Compound 93, 3-(5-cyclo-propoxy-3-(trifluoromethyl)pyridin-2-yl)-N-(3-methyl-pyridin-2-yl)-1,2,4-thiadiazol-5-amine] | 5.30 to 6.30 |  |
| CC(C)COc1ccc(-c2nsc(Nc3ncccc3N(C)C)n2)nc1 [Compound 149, N2-(3-(5-isobutoxy-pyridin-2-yl)-1,2,4-thiadiazol-5-yl)-N3,N3-dimethyl-pyridine-2,3-diamine] | > 6.70 |  |
| CN1CCC(Oc2ccc(-c3nsc(Nc4ncccc4N(C)C)n3)nc2)CC1 [Compound 59, N3,N3-dimethyl-N2-(3-(5-(1-methylpiperidin-4-yloxy)pyridin-2-yl)-1,2,4-thiadiazol-5-yl)pyridine-2,3-diamine] | 5.30 to 6.30 |  |
| COc1cccnc1Nc1nc(-c2ccc(OC3CC3)cn2)ns1 [Compound 80, 3-(5-cycloprop-oxypyridin-2-yl)-N-(3-methoxypyridin-2-yl)-1,2,4-thiadiazol-5-amine] | 6.30 to 6.70 |  |
| CC(C)Oc1ccc(-c2nsc(Nc3ncccc3N3CCCC3=O)n2)nc1 [Compound 178, 1-(2-(3-(5-isopropoxy-pyridin-2-yl)-1,2,4-thiadiazol-5-ylamino)pyridin-3-yl)pyrrolidin-2-one] | 5.30 to 6.30 |  |
| COc1ccc(-c2nsc(Nc3ccc(C4CCN(C)CC4)cn3)n2)nc1 [Compound 50, 3-(5-methoxy-pyridin-2-yl)-N-(5-(1-methyl-piperidin-4-yl)pyridin-2-yl)-1,2,4-thiadiazol-5-amine] | 5.30 to 6.30 |  |
| c1ccc(-c2ccnc(Nc3nnc(-c4ccccn4)[nH]3)c2)cc1 [Compound 241, 4-phenyl-N-(5-(pyridin-2-yl)-4H-1,2,4-triazol-3-yl) pyridin-2-amine] |  | > 6.70 |
| Cc1cccnc1N(C)c1nc(-c2ccc(OC(C)C)cn2)ns1 [Compound 98, 3-(5-isopropoxy-pyridin-2-yl)-N-methyl-N-(3-methylpyridin-2-yl)-1,2,4-thiadiazol-5-amine] | 6.30 to 6.70 |  |
| Cc1cccnc1Nc1nc(-c2ccc(OC3CC4(C3)CN(C)C4)cn2)ns1 [Compound 88, 3-(5-(2-methyl-2-azaspiro[3.3]heptan-6-yloxy)pyridin-2-yl)-N-(3-methylpyridin-2-yl)-1,2,4-thiadiazol-5-amine] | 5.30 to 6.30 |  |
| COc1ccc(-c2nsc(Nc3ccc(C(F)(F)F)cn3)n2)nc1 [Compound 209, 3-(5-methoxy-pyridin-2-yl)-N-(5-(trifluoromethyl)pyridin-2-yl)-1,2,4-thiadiazol-5-amine] |  | > 6.70 |
| Cc1cccnc1Nc1nc(-c2ccc(C(=O)N3CCCC3)cn2)ns1 [Compound 61, (6-(5-(3-methyl-pyridin-2-ylamino)-1,2,4-thiadiazol-3-yl)pyridin-3-yl) (pyrrolidin-1-yl)methanone] | 6.30 to 6.70 |  |
| Cc1ccnc(-c2nsc(Nc3ncccc3F)n2)c1 [Compound 12, N-(3-fluoropyridin-2-yl)-3-(4-methylpyridin-2-yl)-1,2,4-thiadiazol-5-amine] | > 6.70 |  |
| Cc1cccnc1Nc1nc(-c2ccc(OC3CCN(C4CC4)CC3)cn2)ns1 [Compound 45, 3-(5-(1-cyclo-propylpiperidin-4-yloxy)pyridin-2-yl)-N-(3-methylpyridin-2-yl)-1,2,4-thiadiazol-5-amine] | > 6.70 |  |

The remaining lines, values ahead:

| pIC50 [1] | pIC50 [2] | SMILES |
| --- | --- | --- |
|  | 5.30 to 6.30 | CC(=O)N(C)c1cnc(Nc2nc(-c3cc(OC(C)C)ccn3)ns2)c(C(F)(F)F)c1 [Compound 285, N-(6-(3-(4-isopropoxy-pyridin-2-yl)-1,2,4-thiadiazol-5-ylamino)-5-(trifluoromethyl)pyridin-3-yl)-N-methylacetamide] |
|  | 5.30 to 6.30 | CC(=O)N(C)c1nccnc1Nc1nc(-c2ccc(OC(C)C)cn2)ns1 [Compound 313, N-(3-(3-(5-isopropoxypyridin-2-yl)-1,2,4-thiadiazol-5-ylamino)pyrazin-2-yl)-N-methylacetamide] |
|  | > 6.70 | COc1ccc(Nc2nnc(-c3cc(OC4CCCCC4)ccn3)o2)nc1 [Compound 214, 5-(4-(cyclohexy-loxy)pyridin-2-yl)-N-(5-methoxypyridin-2-yl)-1,3,4-oxadiazol-2-amine] |
| 5.30 to 6.30 |  | Cc1cccnc1N(c1nc(-c2ccc(OC(C)C)cn2)ns1)C(C)C [Compound 138, 3-(5-isoprop-oxypyridin-2-yl)-N-isopropyl-N-(3-methylpyridin-2-yl)-1,2,4-thiadiazol-5-amine] |
|  | 5.30 to 6.30 | CC(C)Oc1ccc(-c2nsc(Nc3ncc(C(F)(F)F)cc3N3CCCC3=O)n2)nc1 [Compound 312, 1-(2-(3-(5-isopropoxypyridin-2-yl)-1,2,4-thiadiazol-5-ylamino)-5-(trifluoromethyl)pyridin-3-yl)pyrrolidin-2-one] |
|  | 5.30 to 6.30 | CN1CCc2cc(-c3nsc(Nc4ncccc4S(=O)(=O)N(C)C)n3)ncc21 [Compound 307, N,N-dimethyl-2-(3-(1-methyl-2,3-dihydro-1H-pyrrolo[2,3-c]pyridin-5-yl)-1,2,4-thiadiazol-5-ylamino) pyridine-3-sulfonamide] |
| 5.30 to 6.30 |  | CNc1cccnc1N(C)c1nc(-c2ccc(OC(C)C)cn2)ns1 [Compound 159, N2-(3-(5-isopropoxy-pyridin-2-yl)-1,2,4-thiadiazol-5-yl)-N2,N3-dimethyl-pyridine-2,3-diamine] |
|  | > 6.70 | CC(=O)N(C)c1cc(C(F)(F)F)cnc1Nc1nc(-c2cc3c(cn2)CN(C(C)C)C3)ns1 [Compound 311, N-(2-(3-(2-isopropyl-2,3-dihydro-1H-pyrrolo[3,4-c]pyridin-6-yl)-1,2,4-thiadiazol-5-ylamino)-5-(trifluoromethyl)pyridin-3-yl)-N-methylacetamide] |
|  | > 6.70 | Cc1cc(C(F)(F)F)cnc1Nc1nc(-c2cc3c(cn2)N(C)CC3)ns1 [Compound 324, 3-(1-methyl-2,3-dihydro-1H-pyrrolo[2,3-c]pyridin-5-yl)-N-(3-methyl-5-(trifluoromethyl)pyridin-2-yl)-1,2,4-thiadiazol-5-amine] |
|  | 5.30 to 6.30 | CC(=O)N(C)c1cc(C(F)(F)F)cnc1Nc1n[nH]c(-c2cc3c(cn2)N(C(C)C)CC3)n1 [Compound 295, N-(2-(5-(1-isopropyl-2,3-dihydro-1H-pyrro1o[2,3-c]pyridin-5-yl)-1H-1,2,4-triazol-3-ylamino)-5-(trifluoromethyl)pyridin-3-yl)-N-methylacetamide] |
| 5.30 to 6.30 |  | CC(C)Oc1ccc(-c2nsc(N(C)c3ncccc3C(C)C)n2)nc1 [Compound 130, 3-(5-isopropoxy-pyridin-2-yl)-N-(3-isopropy-lpyridin-2-yl)-N-methyl-1,2,4-thiadiazol-5-amine] |
| > 6.70 |  | CN(C)c1cccnc1Nc1nc(-c2cc3c(cn2)N(C)CC3)ns1 [Compound 162, N3,N3-dimethyl-N2-(3-(1-methyl-2,3-dihydro-1H-pyrrolo[2,3-c]pyridin-5-yl)-1,2,4-thiadiazol-5-yl)pyridine-2,3-diamine] |
| 5.30 to 6.30 |  | Cc1cccnc1Nc1nc(-c2cc(C(=O)N(C)C)c(OC(C)C)cn2)ns1 [Compound 192, 5-isopropoxy-N,N-dimethyl-2-(5-(3-methylpyridin-2-ylamino)-1,2,4-thiadiazol-3-yl)isonicotin-amide] |
